In PMC546329, “SIRT1 Regulates HIV Transcription via Tat Deacetylation” (PLoS Biology, 2005):

Target: T1, SIRT1 (Homo sapiens, UniProt Q96EB6)
T1 construct: FLAG-tagged SIRT1 immunoprecipitated from HEK 293 cells
T1 sequence (Q96EB6 2-747): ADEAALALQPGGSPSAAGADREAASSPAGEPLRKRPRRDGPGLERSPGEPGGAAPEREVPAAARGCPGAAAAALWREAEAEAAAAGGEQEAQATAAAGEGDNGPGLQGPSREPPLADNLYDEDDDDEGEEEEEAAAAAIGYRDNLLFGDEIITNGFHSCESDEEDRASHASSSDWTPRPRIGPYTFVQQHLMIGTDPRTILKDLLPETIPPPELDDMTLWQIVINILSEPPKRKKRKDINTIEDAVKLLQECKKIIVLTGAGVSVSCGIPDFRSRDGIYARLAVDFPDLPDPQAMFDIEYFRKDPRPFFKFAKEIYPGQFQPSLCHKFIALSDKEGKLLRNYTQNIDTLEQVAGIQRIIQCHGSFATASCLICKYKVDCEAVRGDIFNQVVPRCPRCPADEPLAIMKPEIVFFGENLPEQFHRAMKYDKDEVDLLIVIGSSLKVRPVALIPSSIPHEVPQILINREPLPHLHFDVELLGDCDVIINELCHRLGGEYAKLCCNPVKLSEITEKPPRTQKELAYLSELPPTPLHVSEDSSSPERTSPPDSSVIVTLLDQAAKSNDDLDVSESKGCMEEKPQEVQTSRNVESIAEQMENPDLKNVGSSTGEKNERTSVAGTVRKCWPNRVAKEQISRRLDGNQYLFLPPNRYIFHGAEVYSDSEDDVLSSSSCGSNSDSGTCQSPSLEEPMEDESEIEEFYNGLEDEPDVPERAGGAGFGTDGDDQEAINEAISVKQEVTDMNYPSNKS
Assay: deacetylation of synthetic acetylated Tat by immunoprecipitated SIRT1 with or without […] NAD+, Western blot
Format: biochemical

In the case of `NC(=O)c1ccc[n+]([C@@H]2O[C@H](COP(=O)([O-])OP(=O)(O)OC[C@H]3O[C@@H](n4cnc5c(N)ncnc54)[C@H](O)[C@@H]3O)[C@@H](O)[C@H]2O)c1` [NAD^+], the “deacetylation of synthetic acetylated Tat by immunoprecipitated SIRT1 with or wi” value is reported as “The SIRT1-mediated deacetylation of Tat was dependent on NAD^+”.
